The text below walks through data of ChEMBL document CHEMBL3044575, “Synthesis, anti-inflammatory activity, and QSAR study of some Schiff bases derived from 5-mercapto-3-(4-pyridyl)-4H-1,2,4-triazol-4-yl-thiosemicarbazide” (2013).

What all share (format): functional
In experiment [1] the test system is Rattus norvegicus. The experiment in a line: Anti-inflammatory activity in Albino Rattus norvegicus (rat) assessed as inhibition of carrageenan-induced paw edema at 20 mg/kg, po administered 1 hr prior to carrageenan challenge measured after 5 hr by mercury displacement technique.
Experiment [2] relates to Rattus norvegicus. Kind of experiment: Anti-inflammatory activity in Albino Rattus norvegicus (rat) assessed as inhibition of carrageenan-induced paw edema at 20 mg/kg, po administered 1 hr prior to carrageenan challenge measured after 2 hr by mercury displacement technique.
In experiment [3] the test system is Rattus norvegicus. The experiment in a line: Anti-inflammatory activity in Albino Rattus norvegicus (rat) assessed as inhibition of carrageenan-induced paw edema at 20 mg/kg, po administered 1 hr prior to carrageenan challenge measured after 1 hr by mercury displacement technique.
In experiment [4] the test system is Rattus norvegicus. Kind of experiment: Anti-inflammatory activity in Albino Rattus norvegicus (rat) assessed as inhibition of carrageenan-induced paw edema at 10 mg/kg, po administered 1 hr prior to carrageenan challenge measured after 5 hr by mercury displacement technique.
In experiment [5] the test system is Rattus norvegicus. The experiment in a line: Anti-inflammatory activity in Albino Rattus norvegicus (rat) assessed as inhibition of carrageenan-induced paw edema at 10 mg/kg, po administered 1 hr prior to carrageenan challenge measured after 2 hr by mercury displacement technique.
Experiment [6] concerns Rattus norvegicus. The experiment in a line: Anti-inflammatory activity in Albino Rattus norvegicus (rat) assessed as inhibition of carrageenan-induced paw edema at 10 mg/kg, po administered 1 hr prior to carrageenan challenge measured after 1 hr by mercury displacement technique.

For the molecule `O=[N+]([O-])c1ccc(/C=N/NC(=S)Nn2c(S)nnc2-c2ccncc2)cc1`, the inhibition in vivo at 20 mg/kg in the experiment on Rattus norvegicus [1] was 41.5%; in the experiment with Rattus norvegicus [2], 34.5%; in the experiment on Rattus norvegicus [3], 14.3%.

Regarding `S=C(N/N=C/c1ccccc1Cl)Nn1c(S)nnc1-c1ccncc1`, the inhibition in vivo at 20 mg/kg in the experiment with Rattus norvegicus [1] was found to be 67.3%; with Rattus norvegicus [2], 62.5%; in the experiment on Rattus norvegicus [3], 39.1%.

For `S=C(N/N=C/c1ccc(Cl)cc1)Nn1c(S)nnc1-c1ccncc1`, the inhibition in vivo at 20 mg/kg came to 76.9% with Rattus norvegicus [1], 69.6% in the experiment with Rattus norvegicus [2] and 45.5% in the experiment with Rattus norvegicus [3].

Take `COc1cc(/C=N/NC(=S)Nn2c(S)nnc2-c2ccncc2)cc(OC)c1OC`: the inhibition in vivo at 20 mg/kg with Rattus norvegicus [1] amounted to 61.4%; with Rattus norvegicus [2], 52.9%; with Rattus norvegicus [3], 36.2%.

Consider `COc1ccc(/C=N/NC(=S)Nn2c(S)nnc2-c2ccncc2)cc1O`, for which the inhibition in vivo at 20 mg/kg in the experiment with Rattus norvegicus [1] was determined as 48.4%; in the experiment with Rattus norvegicus [2] it was 44.4%; with Rattus norvegicus [3] it was 28%.

On to `COc1ccc2c(c1)c(CC(=O)O)c(C)n2C(=O)c1ccc(Cl)cc1` [INDOMETHACIN], for which the inhibition in vivo at 10 mg/kg in the experiment with Rattus norvegicus [4] was 84%; with Rattus norvegicus [5], 73%; in the experiment on Rattus norvegicus [6], 52%.
